Reference: patent US20050009908A1, “Aqueous dispersion comprising stable nonoparticles of a water-insoluble active and an excipient like middle chain triglycerides (mct)” (priority 2001, published 2005)
Converted amounts (≈) assume the structure as drawn. Read-outs that look alike come from different tables or passages of the source.

Experiment: Solubility of crystalline substance in the inhibitor (HPLC of saturated solution)
Type: physicochemical
Description: The mole fraction solubility of the crystalline substantially water-insoluble substance in the inhibitor (x^S1) is simply the number of moles of substance per mole of inhibitor present in a saturated solution of the substance in the inhibitor. As will be realized the equation above is derived for a two component system of a substance and an inhibitor. In those systems where the inhibitor contains more than one compound (for example in the case of a medium chain triglyceride comprising a mixture of triglycerides such as Miglyol 812N, or where a mixture of inhibitors is used) it is sufficient to calculate x^S1 in terms of the “apparent molarity” of the mixture of inhibitors. The apparent molarity of such a mixture is calculated for a mixture of n inhibitor components to be: [formula] • wherein: a, b . . . n are the weight fraction of each component in the inhibitor mixture (for example for component a this is %w/w component a/100); and • Mwa . . . Mwn is the molecular weight of each component a . . . n in the mixture. • x^S1 is then calculated as: [formula]
The mole-fraction solubility of the felodipine/Miglyol 812N (x^sl in Equation I) was determined by magnetically stirring an excess of crystalline felodipine (approx 2-5 times that required for a saturated solution) in Miglyol 812N (5-25 ml) at 350 rpm (protected from light and sealed under a nitrogen atmosphere) for 2 days at room temperature. The resulting mixture was filtered to remove solids (0.2 μm filter) and then analyzed using BPLC to determine the quantity of felodipine dissolved in the Miglyol 812N. […] Miglyol 812N is a mixture of approximately 60% C8-triglyceride (Mw 471) and 40% C10-triglyceride (Mw 555) and has a density of approximately 0.945 g/cm^3. Thus, the apparent molarity of Miglyol 812N is 945/(0.6*471+0.4*555)=1.9].

[1] = oil or lipid, thermodynamic from solid

With `CCc1cccc(C)c1CNc1cc(C(N)=O)cn2c(C)c(C)nc12` [8-[(2-ethyl-6-methylbenzyl)amino]-2,3-dimethylimidazo[1,2-a]pyridine-6-carboxamide] the “mole fraction solubility in Miglyol 812N” value was 0.00116, the “mole fraction solubility in Miglyol 812N/1-decanol mixture” value was 0.0103 and the solubility [1] was 37 mM (≈ 12.4 mg/mL). The solubility at 2 days [1] was 2.2 mM (≈ 0.74 mg/mL).

`CCOC(=O)C1=C(C)NC(C)=C(C(=O)OC)C1c1cccc(Cl)c1Cl` (centres unmarked) [felodipine] gave a solubility at 2 days (Miglyol 812N (medium chain triglyceride mixture), oil or lipid, thermodynamic from solid, room temperature, 2 days stirring, read-out: solubility in Miglyol 812N) of 69 mM (≈ 26.5 mg/mL).
